For one experiment, the species on record is Oryctolagus cuniculus. Kind of experiment: Effective concentration required for stimulation of vascular contraction tested in vitro using carotid arteries of New Zealand white rabbits. The format is functional.
A further experiment addresses T1, Endothelin-1 receptor (Rattus norvegicus, UniProt P26684).
T1 sequence (P26684 whole entry): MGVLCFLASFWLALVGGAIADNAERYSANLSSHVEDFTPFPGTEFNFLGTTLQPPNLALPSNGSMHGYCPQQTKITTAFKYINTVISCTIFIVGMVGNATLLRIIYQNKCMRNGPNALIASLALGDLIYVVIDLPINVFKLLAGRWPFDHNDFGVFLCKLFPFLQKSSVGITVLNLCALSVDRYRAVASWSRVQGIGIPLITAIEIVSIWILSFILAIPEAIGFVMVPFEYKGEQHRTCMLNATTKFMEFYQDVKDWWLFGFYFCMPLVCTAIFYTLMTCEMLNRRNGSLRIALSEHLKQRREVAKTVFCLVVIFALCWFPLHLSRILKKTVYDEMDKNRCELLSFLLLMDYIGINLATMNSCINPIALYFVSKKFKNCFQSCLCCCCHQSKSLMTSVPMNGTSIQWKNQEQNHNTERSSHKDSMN
Kind of experiment: Binding affinity towards Endothelin A receptor in A10 rat thoracic aorta smooth muscle cells using [125I]ET1 as radioligand.

Molecules are shown by their SMILES. Positions of bridges follow the written chain, without caps; N, C: chain ends. Non-standard residues stand in square brackets, D forms with d. Residues, ends and D or L forms follow the SMILES beside them. Nle = CCCC[C@H](N)C(=O)O

The record followed here is ChEMBL document CHEMBL1125940 (Bioorg Med Chem Lett, 1991).

One may read the EC50 as the concentration giving half of the maximal effect. On to `CC[C@H](C)[C@H](NC(=O)[C@H](C)NC(=O)[C@H](CC(=O)O)NC(=O)[C@H](CC(C)C)NC(=O)[C@H](Cc1c[nH]cn1)NC(=O)[C@@H]1CSSC[C@H](N)C(=O)N[C@@H](CO)C(=O)N[C@H]2CSSC[C@H](NC(=O)[C@H](CCC(=O)O)NC(=O)[C@H](CCCCN)NC(=O)[C@H](CC(=O)O)NC(=O)[C@H](CCSC)NC(=O)[C@H](CC(C)C)NC(=O)[C@H](CO)NC(=O)[C@H](CO)NC2=O)C(=O)N[C@@H](C(C)C)C(=O)N[C@@H](Cc2ccc(O)cc2)C(=O)N[C@@H](Cc2ccccc2)C(=O)N1)C(=O)N[C@@H](Cc1c[nH]c2ccccc12)C(=O)O` (H-CSCSSLMDKECVYFCHLDAIW-OH; disulfide 1-15, 3-11), for which, in the experiment filed under Oryctolagus cuniculus, the response was half-maximal at 182 nM (EC50). Turning to `CCCC[C@@H]1NC(=O)[C@H](CC(C)C)NC(=O)[C@H](CO)NC(=O)[C@H](CO)NC(=O)[C@H](C)NC(=O)[C@H](CO)NC(=O)[C@@H](N)CSSC[C@@H](C(=O)N[C@@H](Cc2c[nH]cn2)C(=O)N[C@@H](CC(C)C)C(=O)N[C@@H](CC(=O)O)C(=O)N[C@H](C(=O)N[C@H](C(=O)N[C@@H](Cc2c[nH]c3ccccc23)C(=O)O)[C@@H](C)CC)[C@@H](C)CC)NC(=O)[C@H](Cc2ccccc2)NC(=O)[C@H](Cc2ccc(O)cc2)NC(=O)[C@H](C(C)C)NC(=O)[C@H](C)NC(=O)[C@H](CCC(=O)O)NC(=O)[C@H](CCCCN)NC(=O)[C@H](CC(=O)O)NC1=O` (H-CSASSL[Nle]DKEAVYFCHLDIIW-OH; disulfide 1-15), the concentration giving a half-maximal response (EC50) in the experiment listed under Oryctolagus cuniculus amounted to 3.3 nM. With `CC[C@H](C)[C@H](NC(=O)[C@H](CC(=O)O)NC(=O)[C@H](CC(C)C)NC(=O)[C@H](Cc1c[nH]cn1)NC(=O)[C@@H]1CSSC[C@H](N)C(=O)N[C@@H](CO)C(=O)N[C@H]2CSSC[C@H](NC(=O)[C@H](CCC(=O)O)NC(=O)[C@H](CCCCN)NC(=O)[C@H](CC(=O)O)NC(=O)[C@H](CCSC)NC(=O)[C@H](CC(C)C)NC(=O)[C@H](CO)NC(=O)[C@H](CO)NC2=O)C(=O)N[C@@H](C(C)C)C(=O)N[C@@H](Cc2ccc(O)cc2)C(=O)N[C@@H](Cc2ccccc2)C(=O)N1)C(=O)N[C@H](C(=O)N[C@@H](Cc1c[nH]c2ccccc12)C(=O)O)[C@@H](C)CC` [ENDOTHELIN], in the experiment filed under Oryctolagus cuniculus, the EC50 came to 0.94 nM. Take `CC[C@H](C)[C@H](NC(=O)[C@H](CC(=O)O)NC(=O)[C@H](CC(C)C)NC(=O)[C@H](Cc1c[nH]cn1)NC(=O)[C@@H]1CSSC[C@H](N)C(=O)N[C@@H](C)C(=O)N[C@H]2CSSC[C@H](NC(=O)[C@H](CCC(=O)O)NC(=O)[C@H](CCCCN)NC(=O)[C@H](CC(=O)O)NC(=O)[C@H](CCSC)NC(=O)[C@H](CC(C)C)NC(=O)[C@H](CO)NC(=O)[C@H](CO)NC2=O)C(=O)N[C@@H](C(C)C)C(=O)N[C@@H](Cc2ccc(O)cc2)C(=O)N[C@@H](Cc2ccccc2)C(=O)N1)C(=O)N[C@H](C(=O)N[C@@H](Cc1c[nH]c2ccccc12)C(=O)O)[C@@H](C)CC` (H-CACSSLMDKECVYFCHLDIIW-OH; disulfide 1-15, 3-11): in the experiment filed under Oryctolagus cuniculus, the EC50 was 38 nM. This EC50 is about 40-fold higher than that of the molecule before.

`CC[C@H](C)[C@H](NC(=O)[C@H](CC(=O)O)NC(=O)[C@H](CC(C)C)NC(=O)[C@H](Cc1c[nH]cn1)NC(=O)[C@@H]1CSSC[C@H](N)C(=O)N[C@@H](CO)C(=O)N[C@H]2CSSC[C@H](NC(=O)[C@H](CCC(=O)O)NC(=O)[C@H](CCCCN)NC(=O)[C@H](CC(=O)O)NC(=O)[C@H](C)NC(=O)[C@H](C)NC(=O)[C@H](C)NC(=O)[C@H](C)NC2=O)C(=O)N[C@@H](C(C)C)C(=O)N[C@@H](Cc2ccc(O)cc2)C(=O)N[C@@H](Cc2ccccc2)C(=O)N1)C(=O)N[C@H](C(=O)N[C@@H](Cc1c[nH]c2ccccc12)C(=O)O)[C@@H](C)CC` (H-CSCAAAADKECVYFCHLDIIW-OH; disulfide 1-15, 3-11): the midpoint of the response in the experiment listed under Oryctolagus cuniculus, the EC50, lay at 36 nM. Molecule `CC[C@H](C)[C@H](NC(=O)[C@H](CC(=O)O)NC(=O)[C@H](CC(C)C)NC(=O)[C@H](Cc1c[nH]cn1)NC(=O)[C@@H]1CSSC[C@H](N)C(=O)N[C@@H](CO)C(=O)N[C@H]2CSSC[C@H](NC(=O)[C@H](CCC(=O)O)NC(=O)[C@H](CCCCN)NC(=O)[C@H](CC(=O)O)NC(=O)[C@H](CCSC)NC(=O)[C@H](CC(C)C)NC(=O)[C@H](CO)NC(=O)[C@H](CO)NC2=O)C(=O)N[C@@H](C)C(=O)N[C@@H](Cc2ccc(O)cc2)C(=O)N[C@@H](Cc2ccccc2)C(=O)N1)C(=O)N[C@H](C(=O)N[C@@H](Cc1c[nH]c2ccccc12)C(=O)O)[C@@H](C)CC` (H-CSCSSLMDKECAYFCHLDIIW-OH; disulfide 1-15, 3-11) gave an EC50 in the experiment listed under Oryctolagus cuniculus of 130 nM. Compared with the last molecule, the EC50 is about 3.6-fold higher. In general, Kd refers to the concentration at which binding is half-saturated. Read a low Kd as a tighter complex. Consider `CC[C@H](C)[C@H](NC(=O)[C@H](CC(=O)O)NC(=O)[C@H](CC(C)C)NC(=O)[C@H](C)NC(=O)[C@@H]1CSSC[C@H](N)C(=O)N[C@@H](CO)C(=O)N[C@H]2CSSC[C@H](NC(=O)[C@H](CCC(=O)O)NC(=O)[C@H](CCCCN)NC(=O)[C@H](CC(=O)O)NC(=O)[C@H](CCSC)NC(=O)[C@H](CC(C)C)NC(=O)[C@H](CO)NC(=O)[C@H](CO)NC2=O)C(=O)N[C@@H](C(C)C)C(=O)N[C@@H](Cc2ccc(O)cc2)C(=O)N[C@@H](Cc2ccccc2)C(=O)N1)C(=O)N[C@H](C(=O)N[C@@H](Cc1c[nH]c2ccccc12)C(=O)O)[C@@H](C)CC` (H-CSCSSLMDKECVYFCALDIIW-OH; disulfide 1-15, 3-11), for which the Kd on Endothelin-1 receptor is 51.9 nM. The EC50 in the experiment filed under Oryctolagus cuniculus was found to be 31 nM. In the case of `CC[C@H](C)[C@H](NC(=O)[C@H](CC(=O)O)NC(=O)[C@H](CC(C)C)NC(=O)[C@H](Cc1cnc[nH]1)NC(=O)[C@@H]1CSSC[C@H](N)C(=O)N[C@@H](CO)C(=O)N[C@H]2CSSC[C@H](NC(=O)[C@H](CCC(=O)O)NC(=O)[C@H](CCCCN)NC(=O)[C@H](CC(=O)O)NC(=O)[C@H](CCSC)NC(=O)[C@H](CC(C)C)NC(=O)[C@H](CO)NC(=O)[C@H](CO)NC2=O)C(=O)N[C@@H](C(C)C)C(=O)N[C@@H](Cc2ccc(O)cc2)C(=O)N[C@@H](Cc2ccccc2)C(=O)N1)C(=O)N[C@@H](C)C(=O)N[C@@H](Cc1c[nH]c2ccccc12)C(=O)O` (H-CSCSSLMDKECVYFCHLDIAW-OH; disulfide 1-15, 3-11), at Endothelin-1 receptor, the affinity, expressed as Kd, was 2.11 nM. This lies in the single-digit nanomolar range. Molecule `CC[C@H](C)[C@H](NC(=O)[C@H](CC(=O)O)NC(=O)[C@H](CC(C)C)NC(=O)[C@H](Cc1cnc[nH]1)NC(=O)[C@@H]1CSSC[C@H](N)C(=O)N[C@@H](CO)C(=O)N[C@H]2CSSC[C@H](NC(=O)[C@H](CCC(=O)O)NC(=O)[C@H](CCCCN)NC(=O)[C@H](CC(=O)O)NC(=O)[C@H](C)NC(=O)[C@H](C)NC(=O)[C@H](C)NC(=O)[C@H](C)NC2=O)C(=O)N[C@@H](C(C)C)C(=O)N[C@@H](Cc2ccc(O)cc2)C(=O)N[C@@H](Cc2ccccc2)C(=O)N1)C(=O)N[C@H](C(=O)N[C@@H](Cc1c[nH]c2ccccc12)C(=O)O)[C@@H](C)CC` (H-CSCAAAADKECVYFCHLDIIW-OH; disulfide 1-15, 3-11) returned a Kd on Endothelin-1 receptor of 130 nM. Compared with the last molecule, the Kd is about 62-fold higher. On Endothelin-1 receptor, `CSCC[C@@H]1NC(=O)[C@H](CC(C)C)NC(=O)[C@H](CO)NC(=O)[C@H](CO)NC(=O)[C@@H]2CSSC[C@H](NC(=O)[C@H](CCC(=O)O)NC(=O)[C@H](CCCCN)NC(=O)[C@H](CC(=O)O)NC1=O)C(=O)N[C@@H](C(C)C)C(=O)N[C@@H](Cc1ccc(O)cc1)C(=O)N[C@@H](Cc1ccccc1)C(=O)N[C@H](C(=O)N[C@@H](Cc1cnc[nH]1)C(=O)N[C@@H](CC(C)C)C(=O)N[C@@H](CC(=O)O)C(=O)N[C@@H](C)C(=O)N[C@@H](C)C(=O)N[C@@H](Cc1c[nH]c3ccccc13)C(=O)O)CSSC[C@H](N)C(=O)N[C@@H](CO)C(=O)N2` (H-CSCSSLMDKECVYFCHLDAAW-OH; disulfide 1-15, 3-11) returned a Kd of 929 nM.
